Reference: patent US10473647B1, “Peptides for use in treatment and diagnosis of type 1 diabetes” (ImmusanT, Inc., priority 2014, dated 2019)
Non-standard residues stand in square brackets, D forms with d. pGlu = O=C1CC[C@@H](C(=O)O)N1

Tests used:
Format in all cases: cell-based, human
[1] = system: whole blood from subjects with T1D and Celiac disease; experiment: Whole blood cytokine release assay, IL-2 (MAGPIX), Example 1; settings: for IL-2 fold-change (GAD65 peptides) / IL-2 fold-change / IL-2 fold-change (preproinsulin peptides): individual 17mer 20 μg/mL, blood 6 days after commencing oral gluten challenge; for Whole blood IL-2 release / Whole blood IL-2 release, fold-change over medium only: 10 uM
[2] = system: whole blood from subjects with T1D and Celiac disease; experiment: Whole blood cytokine release assay, IFN-γ (MAGPIX), Example 1; settings: for IFN-g fold-change (GAD65 peptides) / IFN-g fold-change / IFN-g fold-change (preproinsulin peptides): individual 17mer 20 μg/mL, blood 6 days after commencing oral gluten challenge; for Whole blood IFNg release / Whole blood IFNg release, fold-change over medium only: 10 uM
[3] = system: whole blood from subjects with T1D and Celiac disease; experiment: Whole blood cytokine release assay, IP-10 (MAGPIX), Example 1; settings: for IP-10 fold-change (GAD65 peptides) / IP-10 fold-change / IP-10 fold-change (preproinsulin peptides) / subjects with elevated whole blood IP-10 release (2-fold greater than medium alone): individual 17mer 20 μg/mL, blood 6 days after commencing oral gluten challenge; for Whole blood IP-10 release / Whole blood IP-10 release, fold-change over medium only: 10 uM; for subjects with elevated whole blood IP-10 release (2-fold greater than medium alone): four subjects
[4] = subject 1, day 0 since oral challenge
[5] = subject 1, day 6 since oral challenge
[6] = subject 2, day 0 since oral challenge
[7] = subject 2, day 6 since oral challenge
[8] = subject 6, day 0 since oral challenge
[9] = subject 6, day 6 since oral challenge
[10] = subject 7, day 0 since oral challenge
[11] = subject 7, day 6 since oral challenge

9 (NMFTYEIAPVFVLLEYV) [compound 9]
IL-2 fold-change (GAD65 peptides) ([1]; Subject 1): 1.00 fold | IL-2 fold-change (GAD65 peptides) ([1]; Subject 2): 1.00 fold | IL-2 fold-change (GAD65 peptides) ([1]; Subject 6): 2.43 fold | IL-2 fold-change (GAD65 peptides) ([1]; Subject 7): 0.81 fold | IFN-g fold-change (GAD65 peptides) ([2]; Subject 1): 0.76 fold | IFN-g fold-change (GAD65 peptides) ([2]; Subject 2): 1.49 fold | IFN-g fold-change (GAD65 peptides) ([2]; Subject 6): 0.83 fold | IFN-g fold-change (GAD65 peptides) ([2]; Subject 7): 0.83 fold | IP-10 fold-change (GAD65 peptides) ([3]; Subject 1): 7.27 fold | IP-10 fold-change (GAD65 peptides) ([3]; Subject 2): 2.02 fold | IP-10 fold-change (GAD65 peptides) ([3]; Subject 6): 17.85 fold | IP-10 fold-change (GAD65 peptides) ([3]; Subject 7): 2.10 fold

(pE)QPFPQPEQPFPWQP-NH2 ([pGlu]QPFPQPEQPFPWQP-NH2; SMILES NC(=O)CC[C@H](NC(=O)[C@H](Cc1c[nH]c2ccccc12)NC(=O)[C@@H]1CCCN1C(=O)[C@H](Cc1ccccc1)NC(=O)[C@@H]1CCCN1C(=O)[C@H](CCC(N)=O)NC(=O)[C@H](CCC(=O)O)NC(=O)[C@@H]1CCCN1C(=O)[C@H](CCC(N)=O)NC(=O)[C@@H]1CCCN1C(=O)[C@H](Cc1ccccc1)NC(=O)[C@@H]1CCCN1C(=O)[C@H](CCC(N)=O)NC(=O)[C@@H]1CCC(=O)N1)C(=O)N1CCC[C@H]1C(N)=O) [SEQ ID NO: 43, gluten peptide, reference compound]
Whole blood IL-2 release [1, 4]: 3.2 pg/mL | Whole blood IL-2 release, fold-change over medium only [1, 4]: 1.00 | Whole blood IL-2 release [1, 5]: 3.2 pg/mL | Whole blood IL-2 release, fold-change over medium only [1, 5]: 1.00 | Whole blood IL-2 release [1, 6]: 3.2 pg/mL | Whole blood IL-2 release, fold-change over medium only [1, 6]: 1.00 | Whole blood IL-2 release [1, 7]: 5.2 pg/mL | Whole blood IL-2 release, fold-change over medium only [1, 7]: 1.61 | Whole blood IL-2 release [1, 8]: 17.9 pg/mL | Whole blood IL-2 release, fold-change over medium only [1, 8]: 3.62 | Whole blood IL-2 release [1, 9]: 115. 9 pg/mL | Whole blood IL-2 release, fold-change over medium only [1, 9]: 27.33 | Whole blood IL-2 release [1, 10]: 41.4 pg/mL | Whole blood IL-2 release, fold-change over medium only [1, 10]: 0.66 | Whole blood IL-2 release [1, 11]: 55.1 pg/mL | Whole blood IL-2 release, fold-change over medium only [1, 11]: 1.31 | Whole blood IFNg release [2, 4]: 60 pg/mL | Whole blood IFNg release, fold-change over medium only [2, 4]: 1.09 | Whole blood IFNg release [2, 5]: 62 pg/mL | Whole blood IFNg release, fold-change over medium only [2, 5]: 0.95 | Whole blood IFNg release [2, 6]: 4.5 pg/mL | Whole blood IFNg release, fold-change over medium only [2, 6]: 1.19 | Whole blood IFNg release [2, 7]: 6.4 pg/mL | Whole blood IFNg release, fold-change over medium only [2, 7]: 1.32 | Whole blood IFNg release [2, 8]: 94 pg/mL | Whole blood IFNg release, fold-change over medium only [2, 8]: 0.98 | Whole blood IFNg release [2, 9]: 258 pg/mL | Whole blood IFNg release, fold-change over medium only [2, 9]: 2.63 | Whole blood IFNg release [2, 10]: 158 pg/mL | Whole blood IFNg release, fold-change over medium only [2, 10]: 0.66 | Whole blood IFNg release [2, 11]: 150 pg/mL | Whole blood IFNg release, fold-change over medium only [2, 11]: 1.00 | Whole blood IP-10 release [3, 4]: 218 pg/mL | Whole blood IP-10 release, fold-change over medium only [3, 4]: 0.82 | Whole blood IP-10 release [3, 5]: 501 pg/mL | Whole blood IP-10 release, fold-change over medium only [3, 5]: 1.49 | Whole blood IP-10 release [3, 6]: 376 pg/mL | Whole blood IP-10 release, fold-change over medium only [3, 6]: 1.42 | Whole blood IP-10 release [3, 7]: 1140 pg/mL | Whole blood IP-10 release, fold-change over medium only [3, 7]: 3.65 | Whole blood IP-10 release [3, 8]: 1934 pg/mL | Whole blood IP-10 release, fold-change over medium only [3, 8]: 6.98 | Whole blood IP-10 release [3, 9]: 10000 pg/mL | Whole blood IP-10 release, fold-change over medium only [3, 9]: 49.76 | Whole blood IP-10 release [3, 10]: 900 pg/mL | Whole blood IP-10 release, fold-change over medium only [3, 10]: 1.21 | Whole blood IP-10 release [3, 11]: 10000 pg/mL | Whole blood IP-10 release, fold-change over medium only [3, 11]: 11.21

MALWMRLLPLLALLALW [SEQ ID NO: 54]
IL-2 fold-change ([1]; Subject 1): 1.00 | IL-2 fold-change (preproinsulin peptides) ([1]; Subject 1): 1.00 fold | IL-2 fold-change ([1]; Subject 2): 1.00 | IL-2 fold-change (preproinsulin peptides) ([1]; Subject 2): 1.00 fold | IL-2 fold-change ([1]; Subject 6): 1.00 | IL-2 fold-change (preproinsulin peptides) ([1]; Subject 6): 1.00 fold | IL-2 fold-change ([1]; Subject 7): 0.21 | IL-2 fold-change (preproinsulin peptides) ([1]; Subject 7): 0.21 fold | IFN-g fold-change ([2]; Subject 1): 1.02 | IFN-g fold-change (preproinsulin peptides) ([2]; Subject 1): 1.02 fold | IFN-g fold-change ([2]; Subject 2): 1.01 | IFN-g fold-change (preproinsulin peptides) ([2]; Subject 2): 1.01 fold | IFN-g fold-change ([2]; Subject 6): 0.88 | IFN-g fold-change (preproinsulin peptides) ([2]; Subject 6): 0.88 fold | IFN-g fold-change ([2]; Subject 7): 0.67 | IFN-g fold-change (preproinsulin peptides) ([2]; Subject 7): 0.67 fold | IP-10 fold-change ([3]; Subject 1): 1.04 | IP-10 fold-change (preproinsulin peptides) ([3]; Subject 1): 1.04 fold | IP-10 fold-change ([3]; Subject 2): 1.05 | IP-10 fold-change (preproinsulin peptides) ([3]; Subject 2): 1.05 fold | IP-10 fold-change ([3]; Subject 6): 2.20 | IP-10 fold-change (preproinsulin peptides) ([3]; Subject 6): 2.20 fold | IP-10 fold-change ([3]; Subject 7): 0.73 | IP-10 fold-change (preproinsulin peptides) ([3]; Subject 7): 0.73 fold | subjects with elevated whole blood IP-10 release (2-fold greater than medium alone) [3]: stimulated IP-10 release in the strongest responder

MRLLPLLALLALWGPDP [SEQ ID NO: 47]
IL-2 fold-change ([1]; Subject 1): 1.00 | IL-2 fold-change (preproinsulin peptides) ([1]; Subject 1): 1.00 fold | IL-2 fold-change ([1]; Subject 2): 1.00 | IL-2 fold-change (preproinsulin peptides) ([1]; Subject 2): 1.00 fold | IL-2 fold-change ([1]; Subject 6): 1.00 | IL-2 fold-change (preproinsulin peptides) ([1]; Subject 6): 1.00 fold | IL-2 fold-change ([1]; Subject 7): 0.36 | IL-2 fold-change (preproinsulin peptides) ([1]; Subject 7): 0.36 fold | IFN-g fold-change ([2]; Subject 1): 1.02 | IFN-g fold-change (preproinsulin peptides) ([2]; Subject 1): 1.02 fold | IFN-g fold-change ([2]; Subject 2): 0.85 | IFN-g fold-change (preproinsulin peptides) ([2]; Subject 2): 0.85 fold | IFN-g fold-change ([2]; Subject 6): 0.91 | IFN-g fold-change (preproinsulin peptides) ([2]; Subject 6): 0.91 fold | IFN-g fold-change ([2]; Subject 7): 0.53 | IFN-g fold-change (preproinsulin peptides) ([2]; Subject 7): 0.53 fold | IP-10 fold-change ([3]; Subject 1): 2.07 | IP-10 fold-change (preproinsulin peptides) ([3]; Subject 1): 2.07 fold | IP-10 fold-change ([3]; Subject 2): 1.37 | IP-10 fold-change (preproinsulin peptides) ([3]; Subject 2): 1.37 fold | IP-10 fold-change ([3]; Subject 6): 7.26 | IP-10 fold-change (preproinsulin peptides) ([3]; Subject 6): 7.26 fold | IP-10 fold-change ([3]; Subject 7): 2.18 | IP-10 fold-change (preproinsulin peptides) ([3]; Subject 7): 2.18 fold | subjects with elevated whole blood IP-10 release (2-fold greater than medium alone) [3]: recognized more weakly by three subjects
